Laboratory results reported in patent publication US12077797B2, “Oligopeptide with lipid-lowering activity, preparation method and application thereof” (Nanjing University of Finance and Economics, priority 2022, dated 2024).
Where a SMILES comes first, the peptide text is derived from it.

System: HepG2 cells
Assay: MTT assay, cell proliferation viability of normal HepG2 cells
Format: cell-based
Conditions: 256 μM, FIG. 5A
Procedure: i) MTT (also referred to as thiazole blue) assay is used to detect the effects of various components (LPH-I, LPH-II and LPH-III) on the cell proliferation viability of normal HepG2 cells: HepG2 cells in logarithmic growth period are taken and prepared into a cell suspension of 4×10^5 cells/mL with the high glucose DMEM medium containing 10% FBS. Sample wells are set in a 96-well plate, and 100 μL of cell suspension is added to each sample well, and the cells are cultured in a cell incubator for 24 hours to adhere to the wall. After removing the culture medium from the sample wells, the components LPH-I (>10 kDa), LPH-II (3-10 kDa) and LPH-III (<3 kDa) are respectively dissolved in the high glucose DMEM culture medium containing 10% FBS to prepare an oligopeptide culture medium with a concentration of 150 μg/mL, and then added to each sample well, with a volume of 100 μL per well. A blank well is set, no cells are present compared with the sample wells, and 100 μL PBS phosphate buffer (1×, pH 7.2) is used to replace the oligopeptide culture medium. A control well is set with cells compared with the sample wells, and 100 μL PBS phosphate buffer (1×, pH 7.2) is used to replace the oligopeptide culture medium. […] The absorbance is measured at 570 nanometers (nm) wavelength in a microplate reader. […]

Question: How did the “effect on the cell viability” value turn out when `C[C@H](N)C(=O)N[C@@H](Cc1ccc(O)cc1)C(=O)N1CCC[C@H]1C(=O)N[C@@H](Cc1ccccc1)C(=O)O` [AYPF] (H-AYPF-OH; N-terminus and C-terminus assumed) was run?
Answer: a certain effect
